A short description of data set [1]: Cytotoxicity against human TE671 cells assessed as reduction in cell viability after 48 hrs by MTT assay. Type of data set: cell-based, TE-671. On the technique in general: Tetrazolium assays rely on reduction of a dye to a coloured formazan, in cell work by metabolically active cells.
Data set [2] is described as follows: Therapeutic index, ratio of CC50 for human TE671 cells to IC50 for antiviral activity against Japanese encephalitis virus infected in human TE671 cells assessed as reduction in virus yield by plaque assay. Type of data set: toxicity, cell-based. Particulars: read-out: Ratio CC50/IC50.
The test system of data set [3] is Japanese encephalitis virus. In words: Inhibition of synthesis of Japanese encephalitis virus RNA genome transfected as EGFP replicon in human TE671 cells assessed as lowered ratio of negative to positive sense strand RNA at 10 uM treated at 1 hr post-transfection and measured at 36 hrs post treatment by RT-PCR analysis. Type of data set: functional, organism-based. (Replicon systems follow genome replication, usually without infectious particles.)

For data set [4], the system named is Japanese encephalitis virus. Nature of the data set: Antiviral activity against Japanese encephalitis virus infected in human TE671 cells assessed as reduction in virus-induced cytopathic effect at 10 to 100 uM treated immediately post-infection measured at 36 hrs post-infection by inverted microscopic analysis. Type of data set: functional, organism-based. (In general: Cytopathic effects are the visible damage that an infection or toxin causes in cultured cells.)

Data set [5] deals with Japanese encephalitis virus. Nature of the data set: Antiviral activity against Japanese encephalitis virus infected in human TE671 cells assessed as reduction in virus infectivity by measuring decrease in NS3-positive cells treated immediately post-infection measured after 24 hrs by DAPI-staining based immunofluorescence analysis. The data set is classed as functional, organism-based. Particulars: for IC50: TE-671, 24 h.

Data set [6] concerns Japanese encephalitis virus. In words: Antiviral activity against Japanese encephalitis virus infected in human TE671 cells assessed as inhibition of extracellular viral particles production by measuring reduction in virus yield measured after 36 hrs by plaque assay. Type of data set: functional, organism-based. Particulars: for IC50: TE-671, 36 h.
In data set [7] the test system is Japanese encephalitis virus. In words: Antiviral activity against Japanese encephalitis virus infected in human TE671 cells assessed as decline in infected cell apoptotic fraction by measuring proportion of cells at subG1 phase treated immediately post-infection measured at 36 hrs post-infection by PI-staining based flow cytometric analysis. Type of data set: functional, organism-based. Particulars: for IC50: TE-671, 36 h.

Data set [8] relates to Japanese encephalitis virus. In words: Antiviral activity against Japanese encephalitis virus infected in human TE671 cells assessed as reduction in virus entry at late stage by measuring decrease in NS3-positive cells at 1 to 10 uM treated at 1 hr post-infection followed by virus/compound mixture wash-out at 1 hr post-incubation followed by culturing of cells for 24 hrs by DAPI-staining based immunofluorescence analysis. Type of data set: functional, organism-based.

For data set [9], the system named is Japanese encephalitis virus. Nature of the data set: Antiviral activity against Japanese encephalitis virus infected in human TE671 cells assessed as inhibition of intracellular virion production at 10 uM measured at 24 to 48 hrs post-infection by plaque assay. Type of data set: functional, organism-based.
In data set [10] the test system is Japanese encephalitis virus. Nature of the data set: Antiviral activity against Japanese encephalitis virus infected in human TE671 cells assessed as reduction in virus entry at late stage by measuring decrease in NS3-positive cells treated at 1 hr post-infection followed by virus/compound mixture wash-out at 1 hr post-incubation followed by culturing of cells for 24 hrs by DAPI-staining based immunofluorescence analysis. The data set is classed as functional, organism-based. The conditions noted are these: TE-671.

Data set [11] has as its system Japanese encephalitis virus. In words: Antiviral activity against Japanese encephalitis virus infected in human TE671 cells assessed as reduction in virus entry at early stage by measuring decrease in NS3-positive cells treated immediately after viral infection followed by virus/compound mixture wash-out at 1 hr post-incubation followed by culturing of cells for 24 hrs by DAPI-staining based immunofluorescence analysis. Type of data set: functional, organism-based. The conditions noted are these: TE-671.

Data set [12] has as its system Enterovirus A71. In words: Antiviral activity against Enterovirus A71 infected in human RD cells assessed as reduction in viral yield measured at 48 hrs post-infection by plaque reduction assay. The data set is classed as functional, organism-based. Particulars: Enterovirus A.
Data set [13] concerns Japanese encephalitis virus. Nature of the data set: Antiviral activity against Japanese encephalitis virus infected in human TE671 cells assessed as reduction in viral yield treated immediately post-viral infection measured at 72 hrs post-infection by plaque assay. The data set is classed as functional, organism-based. Particulars: TE-671, 72 h.
For data set [14], the system named is Japanese encephalitis virus. In words: Antiviral activity against Japanese encephalitis virus infected in hamster BHK-21 cells assessed as reduction in viral yield treated immediately post-viral infection measured at 72 hrs post-infection by plaque assay. Type of data set: functional, organism-based. The conditions noted are these: BHK-21, 72 h.

The values below come from ChEMBL document CHEMBL4406878, “Antiviral efficacy of bromo-anilino substituents of 4,5-dihydrofuran-3-carboxylate compound CW-33 against Japanese encephalitis virus” (Bioorg Med Chem Lett, 2019).

One may read the CC50 as the concentration that lowers cell viability or growth by half. In general, IC50 refers to the concentration at which inhibition is half-maximal.

Each structure is given as a SMILES string. Active and inactive are the calls of the source. The rule behind the calls is not given here. Bounds are passed on as bounds.

Regarding `CCOC(=O)C1=C(Nc2ccc(Br)cc2)OCC1=O`, the half-maximal cytotoxic concentration (CC50) at 48 h in data set [1] was determined as 129 µM. The selectivity ratio in data set [2] is 16.6. The inhibition entry in data set [3] is “inactive”. Besides, the inhibition result in [4] and in data set [8] was “Active” in each case. Besides, the inhibition result in [5], in [6] and in [7] was “Dose-dependent effect” in each case. The IC50 in data set [5] came to 0.4 µM; in data set [6], 7.8 µM; in data set [7], 2 µM.
Take `CCOC(=O)C1=C(Nc2cccc(Cl)c2)OCC1=O`: the 50% cytotoxic concentration (CC50) at 48 h in data set [1] was above 100 µM. Besides, the inhibition result in data set [4] is “Active”. Besides, in data set [7], the inhibition result was “inactive”.
On the same counts, the results for `CCOC(=O)C1=C(Nc2ccc(Cl)cc2)OCC1=O` are above 100 µM, “Active” and “inactive”.
For `CCOC(=O)C1=C(Nc2ccccc2Br)OCC1=O`, in data set [1], the cytotoxic concentration (CC50) at 48 h is 232 µM. In data set [2], the selectivity ratio is 50.2. In addition, the inhibition entry in data set [3], in data set [4] and in data set [9] was “Active” each time. For the same molecule, the IC50 in data set [10] came to 10.2 µM; in data set [5], 0.2 µM; in data set [6], 4.6 µM; in data set [7], 3.2 µM; in data set [11] it was 0.2 µM. The inhibition result in [5], in data set [6] and in data set [7] was “Dose-dependent effect” in each case.
Regarding `CCOC(=O)C1=C(Nc2ccccc2Cl)OCC1=O`, the 50% cytotoxic concentration (CC50) at 48 h in data set [1] was above 100 µM. For the same molecule, in [4], the inhibition entry is “Active”. In addition, in [7], the inhibition result was “Dose-dependent effect” and the IC50 came to 50.5 µM.
Consider `CCOC(=O)C1=C(Nc2cccc(Br)c2)OCC1=O`, for which the half-maximal cytotoxic concentration (CC50) at 48 h in data set [1] was found to be 151 µM. Further, the selectivity ratio in data set [2] stood at 12.4. The inhibition entry in data set [3], in data set [4] and in data set [8] was “Active” each time. The inhibition result in data set [5], in data set [6] and in data set [7] was “Dose-dependent effect” each time. Besides, the IC50 amounted to 3.2 µM in [5], 12.1 µM in data set [6] and 3.1 µM in data set [7].
Regarding `CCOC(=O)C1=C(Nc2cc(C)cc(C)c2)OCC1=O`, the figures for the IC50 in data set [12], in data set [13] and in data set [14] were 200 µM, 12.7 µM and 12.7 µM, respectively.
